“Also recorded” adds a separate entry of the source.
Legend:
NFKB [1] = assay: NFKB reporter activity in THP1-Dual monocytes co-cultured with treated A20 cells; format: cell-based, human; conditions: A20 cells treated 24 hours, then co-culture with THP1-Dual cells 24 hours
Procedure: A20 B-cell leukemia cells were treated with either control (DMSO) or various doses of RSL3, for 24 hours prior to co-culture with THP1-Dual cells for an additional 24 hours. RSL3 was purchased from Selleckchem (Houston, Tex.) and dissolved in DMSO. Subsequently, the THP1 supernatants were assessed for NFKB or IRF reporter activity.
(§1) A20 cells were acquired from ATCC and THP1-Dual cells acquired from InvivoGen (San Diego, Calif.). Both cell types were cultured in 96-well plates for the duration of the assay. 50,000 A20 cells were plated 24 hours prior to dosing with RSL3, with a final DMSO concentration of 0.5%. 24 hours post-treatment, THP1-Dual cells (25,000 cells/well) were added to the A20 cells. 24 hours later, 30 μl of supernatant was mixed with either 200 μl QuantiBlue (InvivoGen, San Diego, Calif.) or 50 μl QuantiLuc and absorbance or luminescence was recorded on a Molecular Devices plate reader.
A20 lymphoma cells were treated with various doses (e.g. 0.002, 0.005, 0.014, 0.041, 0.123, 0.370, 1.111, 3.333 and 10 μM) of a GPX4 inhibitor (RSL3, ML162 or ML210) in the presence or absence of 1 μM Ferrostatin-1 for 24 hours. ML162 was purchased from Cayman Chemical Company Inc and resuspended in DMSO. ML210 was purchased from Sigma-Aldrich and resuspended in DMSO. A20 lymphoma cells were also treated with DMSO as a negative control. After treatment with DMSO or a GPX4 inhibitor for 24 hours, the A20 lymphoma cells were co-cultured with THP1-Dual cells for an additional 24 hours. Subsequently, the THP1 supernatant was assessed for NFKB reporter activity. A20 cells were acquired from ATCC and THP1-Dual cells were acquired from InvivoGen (San Diego, Calif.). Both cell types were cultured in 96-well plates for the duration of the assay.

[2] = test system: A20 B-cell leukemia cells; assay: Viability of A20 cells treated with GPX4 inhibitor, with or without Ferrostatin-1; format: cell-based; conditions: various doses, 24 hours treatment
[3] = test system: Jurkat T cell leukemia cells; assay: Viability of Jurkat T cell leukemia cells treated with RSL3; format: cell-based; conditions: various doses, 24 hours treatment
NFKB [4] = assay: NFKB reporter activity in THP1-Dual monocytes co-cultured with treated Jurkat cells; format: cell-based, human; conditions: Jurkat cells treated 24 hours, then co-culture with THP1-Dual cells 24 hours
Procedure: as §1, with “Jurkat T cell leukemia cells were treated with either control (DMSO) or various doses of RSL3, for 24 hours prior to co-culture with THP1-Dual cells for an additional 24 hours. RSL3 was purchased from Selleckchem (Houston, Tex.) and dissolved in DMSO. Subsequently, the THP1 supernatants were assessed for NFKB or IRF reporter activity. Jurkat cells” for “A20 cells”, “assay. 100,000 Jurkat” for “assay. 50,000 A20”, “the Jurkat” for “the A20”

IRF = IRF reporter activity in THP1-Dual monocytes co-cultured with treated A20 cells; format: cell-based, human; conditions: A20 cells treated 24 hours, then co-culture with THP1-Dual cells 24 hours
Procedure: A20 B-cell leukemia cells were treated with either control (DMSO) or various doses of RSL3, for 24 hours prior to co-culture with THP1-Dual cells for an additional 24 hours. RSL3 was purchased from Selleckchem (Houston, Tex.) and dissolved in DMSO. Subsequently, the THP1 supernatants were assessed for NFKB or IRF reporter activity. A20 cells were acquired from ATCC and THP1-Dual cells acquired from InvivoGen (San Diego, Calif.). Both cell types were cultured in 96-well plates for the duration of the assay. 50,000 A20 cells were plated 24 hours prior to dosing with RSL3, with a final DMSO concentration of 0.5%. 24 hours post-treatment, THP1-Dual cells (25,000 cells/well) were added to the A20 cells. 24 hours later, 30 μl of supernatant was mixed with either 200 μl QuantiBlue (InvivoGen, San Diego, Calif.) or 50 μl QuantiLuc and absorbance or luminescence was recorded on a Molecular Devices plate reader.

[5] = test system: Caki-1 renal cell carcinoma cells; assay: Viability of Caki-1 renal cell carcinoma cells treated with ferroptosis inducer, with or without Ferrostatin-1; format: cell-based; conditions: various doses, 24 hours treatment
NFKB [6] = assay: NFKB reporter activity in THP1-Dual monocytes co-cultured with treated Caki-1 cells; format: cell-based, human; conditions: Caki-1 cells treated 24 hours, then co-culture with THP1-Dual cells 24 hours
Procedure: Caki-1 renal cell carcinoma cells were treated with either control (DMSO) or various doses of Erastin, for 24 hours prior to co-culture with THP1-Dual cells for an additional 24 hours. Erastin was purchased from Selleckchem (Houston, Tex.) and dissolved in DMSO. Subsequently, the THP1 supernatants were assessed for NFKB or IRF reporter activity. Caki-1 cells were acquired from ATCC and THP1-Dual cells acquired from InvivoGen (San Diego, Calif.). Both cell types were cultured in 96-well plates for the duration of the assay. 7.500 Caki-1 cells were plated 24 hours prior to dosing with Erastin, with a final DMSO concentration of 0.5%. 24 hours post-treatment, THP1-Dual cells (25,000 cells/well) were added to the Caki-1 cells. 24 hours later, 30 μl of supernatant was mixed with either 200 μl QuantiBlue (InvivoGen) or 50 μl QuantiLuc and absorbance or luminescence was recorded on a Molecular Devices plate reader. Caki-1 renal cell carcinoma cells were treated with either control (DMSO) or various doses of RSL3, for 24 hours prior to co-culture with THP1-Dual cells for an additional 24 hours. RSL3 was purchased from Selleckchem and dissolved in DMSO. Subsequently, the THP1 supernatants were assessed for NFKB or IRF reporter activity. Caki-1 cells were acquired from ATCC and THP1-Dual cells acquired from InvivoGen (San Diego, Calif.). Both cell types were cultured in 96-well plates for the duration of the assay. 7.500 Caki-1 cells were plated 24 hours prior to dosing with […], with a final DMSO concentration of 0.5%. 24 hours post-treatment, THP1-Dual cells (25,000 cells/well) were added to the Caki-1 cells. 24 hours later, 30 μl of supernatant was mixed with either 200 μl QuantiBlue (InvivoGen, San Diego, Calif.) or 50 μl QuantiFuc and absorbance or luminescence was recorded on a Molecular Devices plate reader. […] Subsequently, the THP1 supernatant was assessed for NFKB reporter activity. […]

## COC(=O)c1ccc([C@H]2c3[nH]c4ccccc4c3C[C@H](C(=O)OC)N2C(=O)CCl)cc1 [RSL3]
NFKB [1]
  NFKB signaling in THP1 monocytes: elicited NFKB; also recorded: increased NFKB activity in THP1 cells in a dose dependent manner
[2]
  viability of A20 cells: negatively affected the viability; also recorded: decreased viability of the cells in a dose dependent manner
[3]
  viability of Jurkat T cell leukemia cells: negatively affected the viability
NFKB [4]
  NFKB signaling in THP1 monocytes: elicited NFKB signaling
IRF
  IRF signaling in THP1 monocytes: elicited
[5]
  viability of Caki-1 cells: negatively affected the viability; also recorded: decreased viability of the cells in a dose dependent manner
NFKB [6]
  NFKB signaling in THP1 monocytes: elicited NFKB signaling; also recorded: increased NFKB activity in THP1 cells in a dose dependent manner
